The values below come from US20230091047A1 (priority 2019, published 2023).

SMILES strings stand for the structures. A value given as a limit tells only on which side of the number the result lay.

In data set [1] the test system is HBV (HepG2.117 cell line, inducibly HBV producing). Nature of the data set: Anti-HBV activity: intracellular HBV DNA by real-time PCR in HepG2.117 cells after 3 days of treatment. Type of data set: cell-based, hepatitis B virus. The note with it: Hepatitis B virus, HepG2.117, 72 h, HepG2.117 cells, intracellular HBV DNA by real-time PCR, 3 days of treatment, mean value; read-out: EC50 (μM, mean value). An outline of the steps: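 Inducible HBV-producing HepG2.117 line (Tet-off); 3-day exposure to serially diluted compound after induction; real-time PCR of intracellular viral DNA.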
For orientation: Real-time PCR tracks product formation cycle by cycle.

The nature of the next data set: in vitro. Type of data set: cell-based. The note with it: human, HepG2 or HepG2.117 cells, ATPlite, 3-days incubation (not marked with *), mean value. Summed up:
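Luminescent ATP quantitation served as the viability endpoint following a 3- or 4-day incubation with test compounds.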

As a reminder, the EC50 is the concentration that produces a half-maximal response. As a reminder, the CC50 is the concentration at which the toxic effect on the cells reaches its halfway point. A low value points to greater toxicity to the cells. In the case of `CNC(=O)c1ccc(-n2c(NCc3ccc(-n4cncn4)cc3)nc3c(c2=O)C[C@@H](C)N(C(=O)c2ccc(Cl)c(Cl)c2)C3)cc1` [Compound C555], the EC50 in data set [1] stood at 1.33 µM. For the same compound, the CC50 at 3 days in the data set “in vitro” was > 50 µM.
On the same counts, the results for `CNC(=O)c1ccc(-n2c(NCc3ncn(-c4ccccc4)n3)nc3c(c2=O)C[C@@H](C)N(C(=O)c2ccc(Cl)c(Cl)c2)C3)cc1` [Compound C556] are 0.57 µM and 25.6 µM.
As to `CNC(=O)c1ccc(-n2c(NCc3cnnn3C)nc3c(c2=O)C[C@@H](C)N(C(=O)c2ccc(Cl)c(Cl)c2)C3)cc1` [Compound C557], the EC50 in data set [1] was > 25 µM. Also, the CC50 at 3 days in “in vitro” is > 50 µM.
The corresponding values for `CNC(=O)c1ccc(-n2c(N3CCCOC(C)C3)nc3c(c2=O)C[C@@H](C)N(C(=O)c2ccc(Cl)c(Cl)c2)C3)cc1` (stereo partly drawn) [Compound C558] are 0.46 µM and > 50 µM.
On the same counts, the results for `CNC(=O)c1ccc(-n2c(NC3CCOC3)nc3c(c2=O)C[C@@H](C)N(C(=O)c2ccc(Cl)c(Cl)c2)C3)cc1` (stereo partly drawn) [Compound C559] are 0.6 µM and > 50 µM.
On the same counts, the results for `CNC(=O)c1ccc(-n2c(NCc3cnn(C)n3)nc3c(c2=O)C[C@@H](C)N(C(=O)c2ccc(Cl)c(Cl)c2)C3)cc1` [Compound C560] are 2.59 µM and > 50 µM.
Regarding `CNC(=O)c1ccc(-n2c(NCc3ncnn3C)nc3c(c2=O)C[C@@H](C)N(C(=O)c2ccc(Cl)c(Cl)c2)C3)cc1` [Compound C561], the EC50 in data set [1] is > 25 µM. For the same compound, the CC50 at 3 days in the data set “in vitro” is > 50 µM.
For `CNC(=O)c1ccc(-n2c(N(C)Cc3cnc4ccc(Cl)cn34)nc3c(c2=O)C[C@@H](C)N(C(=O)c2ccc(Cl)c(Cl)c2)C3)cc1` [Compound C562], the EC50 in data set [1] was 2.87 µM. In “in vitro”, half-maximal cytotoxicity (CC50 at 3 days) was put at 26.8 µM.
On the same counts, the results for `CNC(=O)c1ccc(-n2c(NC(C)C)nc3c(c2=O)C[C@@H](C)N(C(=O)c2ccc(Br)cc2)C3)cc1` [Compound C563] are 0.26 µM and > 50 µM.
The corresponding values for `CNC(=O)c1ccc(-n2c(NC(C)C)nc3c(c2=O)C[C@@H](C)N(C(=O)c2cc4c(C)cc(F)cc4[nH]2)C3)cc1` [Compound C564] are 0.02 µM and 21.7 µM.
The corresponding values for `CNC(=O)c1ccc(-n2c(NC(C)C)nc3c(c2=O)C[C@@H](C)N(C(=O)c2ccc(Br)cc2Cl)C3)cc1` [Compound C565] are 0.68 µM and > 50 µM.
On to `CNC(=O)c1ccc(-n2c(NC(C)C)nc3c(c2=O)C[C@@H](C)N(C(=O)c2cc4c(Cl)c(Cl)ccc4[nH]2)C3)cc1` [Compound C566], for which the EC50 in data set [1] was 0.03 µM. In the data set “in vitro”, this compound gave a CC50 at 3 days of 6.8 µM.
In the case of `CNC(=O)c1ccc(-n2c(NC(C)C)nc3c(c2=O)C[C@@H](C)N(C(=O)c2cc4c(C)cc(OC)cc4[nH]2)C3)cc1` [Compound C567], the EC50 in data set [1] was determined as 0.67 µM. The same compound came in with a CC50 at 3 days in the data set “in vitro” of 36.5 µM.
On the same counts, the results for `CNC(=O)c1ccc(-n2c(NC(C)C)nc3c(c2=O)C[C@@H](C)N(C(=O)c2cc4ccc(Br)c(F)c4[nH]2)C3)cc1` [Compound C568] are 0.02 µM and 25.8 µM.
The corresponding values for `CNC(=O)c1ccc(-n2c(NC(C)C)nc3c(c2=O)C[C@@H](C)N(C(=O)c2cc4c(Br)cccc4[nH]2)C3)cc1` [Compound C569] are 0.01 µM and 21.4 µM.
As for `CNC(=O)c1ccc(-n2c(NC(C)C)nc3c(c2=O)C[C@@H](C)N(C(=O)c2cc4c(C)c(F)ccc4[nH]2)C3)cc1` [Compound C570], in data set [1], the EC50 is 0.01 µM. Also, the CC50 at 3 days in “in vitro” was determined as 24.5 µM.
As for `CNC(=O)c1ccc(-n2c(NC(C)C)nc3c(c2=O)C[C@@H](C)N(C(=O)c2ccc(OC(F)F)c(Br)c2)C3)cc1` [Compound C571], the EC50 in data set [1] was determined as 0.09 µM. Further, in the data set “in vitro”, the CC50 at 3 days was > 50 µM.
On the same counts, the results for `CNC(=O)c1ccc(-n2c(NC(C)C)nc3c(c2=O)C[C@@H](C)N(C(=O)c2cc4c(Br)c(F)ccc4[nH]2)C3)cc1` [Compound C572] are 0.01 µM and 14.6 µM.
Turning to `CNC(=O)c1ccc(-n2c(NC(C)C)nc3c(c2=O)C[C@@H](C)N(C(=O)c2ccc(C(C)(F)F)cc2)C3)cc1` [Compound C573], in data set [1], the EC50 worked out at 0.32 µM. Further, the CC50 at 3 days in the data set “in vitro” is > 50 µM.
On the same counts, the results for `CNC(=O)c1ccc(-n2c(NC(C)C)nc3c(c2=O)C[C@@H](C)N(C(=O)c2cc(F)c(Br)cc2F)C3)cc1` [Compound C574] are 0.73 µM and > 50 µM.
`CNC(=O)c1ccc(-n2c(NC(C)C)nc3c(c2=O)C[C@@H](C)N(C(=O)c2ccc(Br)c(OC(C)C)c2)C3)cc1` [Compound C575]: the EC50 in data set [1] stood at 0.55 µM. Further, in “in vitro”, the CC50 at 3 days is > 50 µM.
On the same counts, the results for `CNC(=O)c1ccc(-n2c(NC(C)C)nc3c(c2=O)C[C@@H](C)N(C(=O)c2cc4c(Br)cc(Cl)cc4[nH]2)C3)cc1` [Compound C576] are 0.05 µM and > 50 µM.
Take `CNC(=O)c1ccc(-n2c(NC(C)C)nc3c(c2=O)C[C@@H](C)N(C(=O)c2cc(Cl)c(Br)cc2F)C3)cc1` [Compound C577]: in data set [1], the EC50 came to 0.17 µM. In addition, the CC50 at 3 days in the data set “in vitro” is > 50 µM.
As for `CNC(=O)c1ccc(-n2c(NC(C)C)nc3c(c2=O)C[C@@H](C)N(C(=O)c2cc(C)c(C)c(Br)c2)C3)cc1` [Compound C578], the EC50 in data set [1] stood at 0.11 µM. The compound further had a CC50 at 3 days in the data set “in vitro” of 33.2 µM.
The corresponding values for `CNC(=O)c1ccc(-n2c(NC(C)C)nc3c(c2=O)C[C@@H](C)N(C(=O)c2cc4cc(Cl)ccc4s2)C3)cc1` [Compound C579] are 0.12 µM and > 50 µM.
For the compound `CNC(=O)c1ccc(-n2c(NC(C)C)nc3c(c2=O)C[C@@H](C)N(C(=O)c2ccc(Br)c(Cl)c2F)C3)cc1` [Compound C580], the EC50 in data set [1] was 0.08 µM. For the same compound, the CC50 at 3 days in “in vitro” was > 50 µM.
On the same counts, the results for `CNC(=O)c1ccc(-n2c(NC(C)C)nc3c(c2=O)C[C@@H](C)N(C(=O)c2ccc(Br)c(F)c2C)C3)cc1` [Compound C581] are 0.15 µM and > 50 µM.
On the same counts, the results for `CNC(=O)c1ccc(-n2c(NC(C)C)nc3c(c2=O)C[C@@H](C)N(C(=O)c2ccc(Cl)cc2Cl)C3)cc1` [Compound C582] are 2.34 µM and > 50 µM.
The corresponding values for `CNC(=O)c1ccc(-n2c(NC(C)C)nc3c(c2=O)C[C@@H](C)N(C(=O)c2cc4cc(Br)ccc4s2)C3)cc1` [Compound C583] are 0.21 µM and > 50 µM.
`CNC(=O)c1ccc(-n2c(NC(C)C)nc3c(c2=O)C[C@@H](C)N(C(=O)c2ccc(Br)c(C)c2F)C3)cc1` [Compound C584]: the EC50 in data set [1] was determined as 0.1 µM. Moreover, the CC50 at 3 days in “in vitro” is > 50 µM.
The corresponding values for `CNC(=O)c1ccc(-n2c(NC(C)C)nc3c(c2=O)C[C@@H](C)N(C(=O)c2ccc(C)c(C(F)(F)F)c2)C3)cc1` [Compound C585] are 0.1 µM and > 50 µM.
On the same counts, the results for `CNC(=O)c1ccc(-n2c(NC(C)C)nc3c(c2=O)C[C@@H](C)N(C(=O)c2ccc(C)c(Br)c2)C3)cc1` [Compound C586] are 0.21 µM and > 50 µM.
The corresponding values for `CNC(=O)c1ccc(-n2c(NC(C)C)nc3c(c2=O)C[C@@H](C)N(C(=O)c2cc4c(OC(F)(F)F)cccc4[nH]2)C3)cc1` [Compound C587] are 0.09 µM and 9.2 µM.
